Tests used:
Type in all cases: physicochemical
[1] = Thermal transformation of crystal form (variable-temperature PXRD); settings: for temperature at which transformation to another polymorph form begins: heating, Form I to Form II, Form III to Form IV
Method: The PXRD analyses are performed using a Rigaku RINT-TTR X-ray powder diffractometer using Cu-Kalpha radiation. The samples can also be measured under the high/low temperature condition by using the attachment of the variant-temperature sample holder. The instrument is equipped with a fine focus X-ray tube. The tube voltage and amperage are set to 50 kV and 300 mA respectively. The divergence and scattering slits are set at 0.5° and the receiving slit is set at 0.15 mm. Diffracted radiation is detected by a NaI scintillation detector. A theta-two theta continuous scan at 4°/min (step size 0.02°) from 3 to 40(°) 2-theta is used. A silicon standard is analyzed to check the machine alignment. Data are collected and analyzed using-Rigaku X-ray system. Samples are prepared for analysis by placing them in an aluminum sample holder that is horizontally rotated at 60 rpm during data acquisition.
4-{[4-({[4-(2,2,2-Trifluoroethoxy)-1,2-benzisoxazol-3-yl]oxy}methyl)piperidin-1-yl]methyl}-tetrahydro-2H-pyran-4-carboxylic acid Polymorph Form I (5 mg) is placed on the temperature-variable sample holder of PXRD, and the temperature of the sample holder is raised to 120° C. and kept for 10 min., then cooled down to room temperature without nitrogen flow to the sample holder to afford Polymorph Form II of 4-{[4-({[4-(2,2,2-trifluoroethoxy)-1,2-benzisoxazol-3-yl]oxy}methyl)piperidin-1-yl]methyl}-tetrahydro-2H-pyran-4-carboxylic acid. Conversion to the Polymorph Form II is confirmed by in situ monitoring of PXRD spectrum.
4-{[4-({[4-(2,2,2-Trifluoroethoxy)-1,2-benzisoxazol-3-yl]oxy}methyl)piperidin-1-yl]methyl}-tetrahydro-2H-pyran-4-carboxylic acid Polymorph Form III begins to transform to Polymorph Form IV at around 90° C. Conversion to the Polymorph Form IV is confirmed by in situ monitoring of PXRD spectrum (variable-temperature PXRD measurement).

[2] = Hygroscopicity study by dynamic vapor sorption (DVS) analysis; settings: for weight gain %: 25° C.; for weight gain % / water absorbed: DVS; for water absorbed: under 95% RH at 25° C.
Method: Hygroscopicity study is performed using Surface Measurement Systems DVS-1. The sample is placed on a microbalance in the instrument and the weight change during the sorption/desorption cycle at 25° C. is monitored. One of the sorption/desorption programs consists of a sorption scan from 0 to 95% relative humidity (RH) and a desorption scan from 95 to 10% RH. The other consists of a sorption scan from 40 to 95% RH and desorption scan from 95 to 0% RH, followed by a second sorption scan from 0 to 40% RH. Both programs are carried out at 5% RH increments and the sample is allowed to equilibrate for 360 minutes or until equilibration had been attained at each step. At the end of the DVS experiment the sample is measured by PXRD.
In the hygroscopicity study by dynamic vapor sorption (DVS) analysis, both Polymorph Form III and Polymorph Form V absorb less than 1.2 wt % under 95% relative humidity (RH) at 25° C. On the other hand, the white solid disclosed in the prior art WO2006/090224 and Polymorph Form I absorb 15 wt % or 14 wt % of water under 95% RH at 25° C.

[3] = Solid-state stability study (constant temperature/humidity chamber; HPLC, PXRD); settings: for purity after storage: 40° C./75% RH for 6 months (rounded)
Method: HPLC data are obtained by Waters Alliance 2695 HPLC system with 2996 PDA detector using the following conditions; • Column: Inertsil ODS-3 (3 micrometers, 4.6×150 mm), • Eluent: acetonitrile/10 mM ammonium acetate=32:68, • Detection: UV at 215 nm, • Flow rate: 1 mL/min, and • Column temperature: 40° C.
Solid-state stability study is performed using Nagano Science Constant temperature/humidity control chamber LH-20-11 M, LH-21-11 M, LTL-200D3CJ-14 or LTX-01. […] The crystalline form, thermal behavior, purity and/or weight change of the resultant sample after the exposure or irradiation are evaluated by PXRD, TG/DTA or DSC, HPLC, microbalance, respectively.

[4] = 25° C./60% RH, 40° C./75% RH and/or Xenon lamp
[5] = 40° C./75% RH for 1 month, HPLC
[6] = 40° C./75% RH for 6 months, HPLC
[7] = storage at 40° C./75% RH for 1 month, HPLC
[8] = storage at 40° C./75% RH for 6 months, HPLC

| Structure (SMILES) | temperature at which transformation to another polymorph form begins [1] | weight gain % ([2]; 85% RH) [%] | weight gain % ([2]; 90% RH) [%] | weight gain % ([2]; 95% RH) [%] | water absorbed [2] [wt %] | solid-state stability, comparison in words [3] | change of crystal form on storage ([3]; 25° C./60% RH) | solid-state stability (in words) [3, 4] | Purity (Area %) Main peak [3, 5] [Area %] | purity after storage [3] [%] | Purity (Area %) Main peak [3, 6] [Area %] | time to transformation to Polymorph Form III ([3]; 70° C./75% RH) [days] | Assay Remaining % [3, 7] [%] | Assay Remaining % [3, 8] [%] | hygroscopicity in comparison with the white solid of WO2006/090224 [2] | solid-state stability (in words) ([3]; 70° C./75% RH) | remaining ([3]; 70° C./75% RH, after 3 weeks, HPLC) [%] | temperature up to which the form is stable [1] |
| --- | --- | --- | --- | --- | --- | --- | --- | --- | --- | --- | --- | --- | --- | --- | --- | --- | --- | --- |
| O=C(O)C1(CN2CCC(COc3noc4cccc(OCC(F)(F)F)c34)CC2)CCOCC1 [Polymorph Form I, 4-{[4-({[4-(2,2,2-trifluoroethoxy)-1,2-benzisoxazol-3-yl]oxy}methyl)piperidin-1-yl]methyl}-tetrahydro-2H-pyran-4-carboxylic acid] | around 110 °C | 0.065 | 0.089 | 14 | 14 | more stable than the white solid | gradually transforms to Polymorph Form III | stable | 99.4 | 96 | 95.6 | ≤ 1 | 98 | 87 |  |  |  |  |
| O=C(O)C1(CN2CCC(COc3noc4cccc(OCC(F)(F)F)c34)CC2)CCOCC1 [Polymorph Form II, 4-{[4-({[4-(2,2,2-trifluoroethoxy)-1,2-benzisoxazol-3-yl]oxy}methyl)piperidin-1-yl]methyl}-tetrahydro-2H-pyran-4-carboxylic acid] |  |  |  |  |  | more stable than the white solid |  |  |  |  |  |  |  |  |  |  |  |  |
| O=C(O)C1(CN2CCC(COc3noc4cccc(OCC(F)(F)F)c34)CC2)CCOCC1 [Polymorph Form III, 4-{[4-({[4-(2,2,2-trifluoroethoxy)-1,2-benzisoxazol-3-yl]oxy}methyl)piperidin-1-yl]methyl}-tetrahydro-2H-pyran-4-carboxylic acid] | around 90 °C | 0.48 | 0.53 | 0.60 |  | more excellent solid-state stability than Polymorph Form I |  | stable | 99.7 | 99 | 99.1 |  | 99 | 97 | lower hygroscopicity | chemically and physically stable | 100 |  |
| O=C(O)C1(CN2CCC(COc3noc4cccc(OCC(F)(F)F)c34)CC2)CCOCC1 [Polymorph Form IV, 4-{[4-({[4-(2,2,2-trifluoroethoxy)-1,2-benzisoxazol-3-yl]oxy}methyl)piperidin-1-yl]methyl}-tetrahydro-2H-pyran-4-carboxylic acid] |  |  |  |  |  |  |  |  |  |  |  |  |  |  |  |  |  | up to 115 °C |
| O=C(O)C1(CN2CCC(COc3noc4cccc(OCC(F)(F)F)c34)CC2)CCOCC1 [Polymorph Form V, 4-{[4-({[4-(2,2,2-trifluoroethoxy)-1,2-benzisoxazol-3-yl]oxy}methyl)piperidin-1-yl]methyl}-tetrahydro-2H-pyran-4-carboxylic acid] |  | 0.74 | 0.85 | 1.1 |  |  |  |  |  |  |  |  |  |  | lower hygroscopicity |  |  |  |
| O=C(O)C1(CN2CCC(COc3noc4cccc(OCC(F)(F)F)c34)CC2)CCOCC1 [White solid disclosed in the prior art WO2006/090224] [4-{[4-({[4-(2,2,2-trifluoroethoxy)-1,2-benzisoxazol-3-yl]oxy}methyl)piperidin-1-yl]methyl}-tetrahydro-2H-pyran-4-carboxylic acid, reference compound] |  | 0.99 | 5.3 | 15 | 15 |  |  |  |  |  |  |  |  |  |  |  |  |  |

Reference: US10179779B2, “Polymorph forms” (RaQualia Pharma Inc., priority 2012, dated 2019)
